Reference: US20090298912A1, “Arginase II: A Target treatment of aging heart and heart failure” (The Johns Hopkins University, priority 2005, published 2009)
“Also recorded” adds a separate entry of the source.

Legend:
[1] = test system: isolated rat cardiac myocytes; test: Contractility (sarcomere shortening) in isolated rat myocytes; assay type: cell-based; conditions: for Emax, increase in myocardial contractility (sarcomere shortening) / EC50: dose response; for EC50: log value, read-out: LogEC50, increase in myocardial contractility (sarcomere shortening) (converted); for Effect on the BEC-induced increase in contractility: L-NAME 10^−4 M (0.1 mM), SMTC 10 μM; for Sarcomere shortening, agent alone: agent alone (L-arginine 0.1 mM), n=3, species of myocytes not stated
Protocol: (§1) Measurement of Contractility in Isolated Rat and Mouse Myocytes: Both rat and mouse myocytes were isolated by enzymatic digestion as previously described (2, 3). Myocytes were transferred to a lucite chamber on the stage of an inverted microscope (Nikon TE 200), continuously superfused with Tyrodes containing 1.0 mM Ca^2+, and stimulated at 1 Hz. Sarcomere length was recorded with an IonOptix intensified charged coupled device camera (iCCD) camera. Change in average sarcomere length was determined by fast Fourier transform of the Z-line density trace to the frequency domain (IonOptix, Milton, Mass.) as previously described (2, 3).
(§2) Data Analysis and Statistics: All data are presented as mean±SEM, with N being indicated for each experimental protocol. For dose responses, data was fitted using the software program Prism 4 (Graphpad) and Emax and EC50 calculated. Statistical analysis was performed using one-way analysis of variance with post test or unpaired Student t test where appropriate.

arginase [2] = biological target: T1, arginase (Rattus norvegicus, UniProt O08701); test: Arginase activity in rat heart and isolated myocyte homogenates; assay type: biochemical; conditions: isolated rat myocytes, dose-dependent
T1 construct: Arginase activity is present in both whole rat heart (n=4) and isolated rat myocytes (n=3); from tissue; host or cells: Wistar rat heart tissue and freshly isolated rat cardiac myocytes (homogenates)
T1 sequence (O08701 23-354): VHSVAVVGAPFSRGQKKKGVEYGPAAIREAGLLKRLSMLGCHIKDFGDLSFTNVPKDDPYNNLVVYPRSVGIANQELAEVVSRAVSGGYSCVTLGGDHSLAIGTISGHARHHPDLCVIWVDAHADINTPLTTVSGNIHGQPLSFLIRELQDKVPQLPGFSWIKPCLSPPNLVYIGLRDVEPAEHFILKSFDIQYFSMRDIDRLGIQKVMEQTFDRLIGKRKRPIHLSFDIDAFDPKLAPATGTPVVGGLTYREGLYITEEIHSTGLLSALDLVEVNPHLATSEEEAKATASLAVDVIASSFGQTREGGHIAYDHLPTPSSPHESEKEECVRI
Protocol: (§3) Arginase Activity: Rat hearts and myocytes were homogenized in lysis buffer (50 mM Tris-HCl, pH 7.5, 0.1 mM EDTA and protease inhibitor) and centrifuged for 30 min at 14,000 g at 4° C. for an arginase activity assay as described previously (20).

arginase [3] = test: as above; assay type: biochemical; conditions: whole rat heart homogenate, dose-dependent
Protocol: as §3

isolated mouse myocytes = test: Contractility (sarcomere shortening) in isolated mouse myocytes (WT, NOS1 and NOS3 deficient); assay type: cell-based
Description: Animals: Mice (8 to 10 weeks old) homozygous for targeted disruption of the NOS1 gene (NOS1^−/−, n=3), the NOS3 gene (NOS3^−/−, n=3), and wild-type control mice (WT, C57BL6J, n=3) were purchased from Jackson Laboratories. All rats (Wistar, 11 to 14 weeks old) were purchased from Harlan Laboratory. All protocols conformed to the current National Institutes of Health and American Physiological Society Guidelines for the Use and Care of Laboratory Animals.
as §1, §2

NO production = NO production (nitrite levels) in heart and isolated cardiac myocyte lysates; assay type: biochemical, rat; conditions: for NO production: BEC 10 μmol/L, n=6; for Effect on myocyte NO production: isolated myocytes, exogenous L-arginine 0.1 mM alone
Protocol: NOS Activity and NO Production: NO production was evaluated by measuring nitrite levels (Calbiochem) following pre-incubation of heart and myocytes with BEC (10 μmol/L) in PBS (pH 7.4) as previously described (52).

Q: What does the source list for `N=C(NO)NCC[C@H](N)C(=O)O` [Nor-NOHA, N-hydroxy-nor-L-arginine]?
A: Increase in contractility (sarcomere shortening) ([1]; isolated rat myocytes, Nor-NOHA dose response (FIG. 4b legend)): 1.9±0.45 fold increase; Emax, increase in myocardial contractility (sarcomere shortening) ([1]; isolated rat myocytes): 1.98±0.23 fold increase; EC50 ([1]; isolated rat myocytes): 1580 nM

Q: `CSC(N)=NCCC[C@H](N)C(=O)O` [SMTC] was tested. Which “Effect on the BEC-induced increase in contractility” value ([1]; isolated rat myocytes) did it give?
A: Its value is “abolished; also recorded: inhibited”.

Q: How did the “Arginase activity in presence of inhibitor” value (arginase [2]) turn out when `N[C@@H](CSCCB(O)O)C(=O)O` [BEC, S-(2-boronoethyl)-L-cysteine] was run?
A: Its value is “inhabitable; also recorded: inhibited”.

Q: What about the “Arginase activity in presence of inhibitor” value (arginase [3]) of the same compound?
A: Its value is “inhibitable; also recorded: inhibited”.

Q: And the “Emax, basal sarcomere shortening” value (isolated mouse myocytes; myocytes from NOS1 deficient mice)?
A: Its value is 1.11±0.08.

Q: And the “Effect on contractility” value (isolated mouse myocytes; myocytes from NOS1 deficient mice, increasing doses)?
A: The value was “no effect”.

Q: And the “Emax, basal sarcomere shortening” value (isolated mouse myocytes; myocytes from NOS3 deficient mice)?
A: Its value is 1.81±0.17.

Q: And the “Effect on sarcomere shortening” value (isolated mouse myocytes; myocytes from NOS3 deficient mice, increasing doses)?
A: The value was “dose dependently increased”.

Q: And the “Effect on sarcomere shortening” value (isolated mouse myocytes; myocytes from WT mice, increasing doses)?
A: Its value is “dose dependently increased”.

Q: What about the “Emax, basal sarcomere shortening” value (isolated mouse myocytes; myocytes from wild type mice) of the same compound?
A: The value was 1.97±0.24.

Q: What about the “Contractility, fold change in sarcomere shortening” value ([1]; isolated rat myocytes, BEC 10^−5M alone (FIG. 4a)) of the same compound?
A: The value was 2.1±0.14 fold change.

Q: And the “Contractility (sarcomere shortening), fold change” value ([1]; isolated rat myocytes, BEC alone, NOS1 inhibitor experiment (FIG. 5a))?
A: Its value is 2.06±0.14.

Q: What about the “Emax, increase in myocardial contractility (sarcomere shortening)” value ([1]; isolated rat myocytes) of the same compound?
A: The value was 1.8±0.3 fold increase.

Q: And the EC50 ([1]; isolated rat myocytes)?
A: The EC50 was 1580 nM.

Q: What about the “Effect on sarcomere shortening” value ([1]; isolated rat myocytes, increasing doses) of the same compound?
A: Its value is “dose dependently increased”.

Q: What about the NO production (NO production; heart lysates) of the same compound?
A: The NO production was 16.7±1 μmol/mg protein.

Q: What about the NO production (NO production; isolated myocyte lysates) of the same compound?
A: Its NO production is 11.1±2.2 μmol/mg protein.

Q: What does the source list for `COC(=O)[C@@H](N)CCCNC(=N)N[N+](=O)[O-]` [L-NAME]?
A: Sarcomere shortening, agent alone [1]: 0.76±0.06 fold change; Effect on the BEC-induced increase in contractility ([1]; isolated rat myocytes): completely abolished; also recorded: completely inhibited

Q: With `N=C(N)NCCC[C@H](N)C(=O)O` [L-arginine] as the compound, how does the “Sarcomere shortening, agent alone” value [1] read?
A: Its value is 1.1±0.05 fold change.

Q: What about the “Effect on myocyte NO production” value (NO production) of the same compound?
A: Its value is “did not effect”.

Q: And the “Effect on myocyte NO production” value (NO production; listed as L-Arginine)?
A: The value was “no effect”.
